In patent US5354864A, “3-(9-acridinylamino)-5-hydroxymethylaniline derivatives as anticancer agents” (Sloan-Kettering Institute for Cancer Research, priority 1992, dated 1994):
pIC50: −log10 of the molar value. Where two headings read alike, the source gives them in different places.

Legend:
[1] = system: mouse leukemia L1210 cells; experiment: In vitro cytotoxicity, growth inhibition of mouse leukemia L1210 cells; type: cell-based
[2] = system: human leukemia HL-60 cells; experiment: In vitro cytotoxicity, growth inhibition of human leukemia HL-60 cells; type: cell-based
L1210 tumor = experiment: Chemotherapeutic effects on L1210 tumor bearing BDF^1 mice; type: in vivo, mouse; conditions: day 1, QD × 4 + Day 7, QD × 2; for % Increase in lifespan: 25% or greater indicates therapeutic activity; for Average survival time: control 7.2 days
Description: Table 2 lists typical examples of chemotherapeutic effects of 3-(9-acridinylamino)-5-hydroxymethylaniline derivatives of formula I on L1210 tumor bearing BDF^1 mice in vivo.
^a Female mice, 19-21 grams, inoculated with 10^6 L1210 cells i.p
treatment schedule was day 1, QD × 4 + Day 7, QD × 2, i.p.

[3] = Lethal doses to BDF^1 mice; type: in vivo; conditions: i.p.
Description: ^b Lethal Doses of these compounds to BDF^1 mice have been

[4] = 37° C.; cited from earlier work
L1210 leukemia = conditions: Cain et al., J. Med. Chem. 1975; cited from earlier work
experimental tumors = conditions: Corbett et al. 1977; Goldin et al. 1981; cited from earlier work
solid tumors = conditions: Casper et al. 1980; cited from earlier work
topoisomerase II = conditions: Nelson et al. 1984; Pommier et al. 1985; cited from earlier work
DNA [5] = conditions: Nelson et al. 1984; Pommier et al. 1985; cited from earlier work
DNA [6] = conditions: Wilson et al. 1984; cited from earlier work
[7] = mouse leukemia L1210, read-out: IC50 for Cell growth Inhibition, L1210
[8] = human leukemia HL-60, read-out: IC50 for Cell growth Inhibition, HL60

| Compound | pIC50 [1, 7] | pIC50 [2, 8] | % Increase in lifespan (L1210 tumor; 5 mg/kg i.p.) | Average weight change, Day 7 (L1210 tumor; 5 mg/kg i.p.) | Average survival time (L1210 tumor; 5 mg/kg i.p.) | % Increase in lifespan (L1210 tumor; 10 mg/kg i.p.) | Average weight change, Day 7 (L1210 tumor; 10 mg/kg i.p.) | Average survival time (L1210 tumor; 10 mg/kg i.p.) | % Increase in lifespan (L1210 tumor; 20 mg/kg i.p.) | Average weight change, Day 7 (L1210 tumor; 20 mg/kg i.p.) | Average weight change, Day 11 (L1210 tumor; 20 mg/kg i.p.) | Average survival time (L1210 tumor; 20 mg/kg i.p.) | Lethal dose to BDF^1 mice ([3]; QD Day 1-Day 4, Day 7-Day 8) | also measured |
| --- | --- | --- | --- | --- | --- | --- | --- | --- | --- | --- | --- | --- | --- | --- |
| Nc1cc(CO)cc(Nc2c3ccccc3nc3ccccc23)c1 [Ia, 3-(9-acridinylamino)-5-hydroxymethylaniline] | 7.59 | 7.01 | 94% | +1.0 grams | 14.0 days | 108% | -0.5 grams | 15.0 days | – | – | – | – | – | Average weight change, Day 11 (L1210 tumor; 5 mg/kg i.p.): +2.0 grams; Average weight change, Day 11 (L1210 tumor; 10 mg/kg i.p.): +0.0 grams; Lethal dose to BDF^1 mice ([3]; QD Day 1-Day 4 + Day 7): 20 mg/kg |
| CC(=O)CCC(=O)Nc1cc(COC(=O)CCC(C)=O)cc(Nc2c3ccccc3nc3ccccc23)c1 [Ib, 3-(9-acridinylamino)-N,O-bis(acetonylacetyl)-5-hydroxymethylaniline] | 7.01 | 8.52 | 25% | +2.0 grams | 9.0 days | 53% | +2.0 grams | 11.0 days | 94% | -3.0 grams | -4.0 grams | 14.0 days | 50 mg/kg | – |
| CC(=O)CCC(=O)Nc1cc(CO)cc(Nc2c3ccccc3nc3ccccc23)c1 [Ic, 3-(9-acridinylamino)-5-hydroxymethyl-N-acetonylacetylaniline] | 7.14 | 8.30 | 53% | +2.0 grams | 11.0 days | 25% | +1.5 grams | 9.0 days | 192% | -1.5 grams | -2.0 grams | 21.0 days | 50 mg/kg | – |
| O=C(O)CCC(=O)Nc1cc(COC(=O)CCC(=O)O)cc(Nc2c3ccccc3nc3ccccc23)c1 [Id, 3-(9-acridinylamino)-5-succinyloxymethyl-N-succinylaniline] | 5.70 | 6.07 | – | – | – | – | – | – | – | – | – | – | – | – |
| O=C(O)CCC(=O)Nc1cc(CO)cc(Nc2c3ccccc3nc3ccccc23)c1 [Ie, 3-(9-acridinylamino)-5-hydroxymethyl-N-succinylaniline] | 5.97 | 6.00 | – | – | – | – | – | – | – | – | – | – | – | – |
| COc1cc(NS(C)(=O)=O)ccc1Nc1c2ccccc2nc2ccccc12 [m-AMSA, 4'-(9-acridinylamino)methanesulfon-m-anisidide] | – | – | – | – | – | – | – | – | – | – | – | – | – | pIC50 ([1]; Mus musculus, L1210, read-out: IC50 for Cell growth Inhibition, L1210): 8.40; pIC50 ([2]; Homo sapiens, HL-60, read-out: IC50 for Cell growth Inhibition, HL60): 7.10; half life in the presence of fresh mouse blood [4]: about 23 minutes; activity against the L1210 leukemia (L1210 leukemia): high activity; activity against a spectrum of experimental tumors (experimental tumors): high activity; activity against a number of solid tumors during Phase II trials (solid tumors): inactive; topoisomerase II inhibition (topoisomerase II): topoisomerase II inhibitor; DNA intercalation (DNA [5]): DNA intercalator; chromosomal aberrations and DNA damage (DNA [6]): induced chromosomal aberrations and DNA damage |
